Measured values from US8246758B2, “Neutral or alkaline medium chain peroxycarboxylic acid compositions and methods employing them” (Ecolab USA Inc., priority 2004, dated 2012).
Read-outs that look alike come from different tables or passages of the source.

Legend:
Mycobacterium bovis BCG = format: cell-based
[1] = tested on: spores of Clostridium sporogenes ATCC 3584; format: cell-based; conditions: pH 6.5, 10 hrs, Ambient
[2] = tested on: Trichophyton mentagrophytes ATCC 9533; assay: AOAC Fungicidal Activity of Disinfectants (955.17); format: cell-based; conditions: pH 6.5, 5 min, Ambient
Description: Activity against fungus, Trichophyton mentagrophytes ATCC 9533, was evaluated using the Fungicidal Activity of Disinfectants using Trichophyton mentagrophytes, Official Methods of Analysis of the Association of Official Analytical Chemists, paragraph 955.17. Composition KK was adjusted to pH 6.5 in synthetic hard water (400 ppm hardness) and tested for activity in the presence of a 5% organic soil load. Antimicrobial efficacy was determined by exposing stainless steel penicyclinders containing dried Trichophyton mentagrophytes to 10 mL of the test substance at the desired concentration, temperature and for the desired contact time. After which each penicylinder was removed aseptically and transferred to a neutralizing subculture medium. A peroxyacetic acid composition was also tested by this procedure.

[3] = tested on: Pseudomonas aeruginosa biofilm; assay: Biofilm removal from stainless steel coupon

In the case of `CC(=O)OO` [Peroxyacetic Acid], the “concentration of peroxyacetic acid needed to be as effective” value (Mycobacterium bovis BCG) is reported as no less than 1250 ppm, the “# Negative Tubes/# Tubes Tested” value ([1]; 1000 ppm) is reported as 59/60 and the “# Negative Tubes/# Tubes Tested” value ([2]; 1000 ppm) is reported as 10/10.

With `CCCCCCCC(=O)OO` [Peroxyoctanoic Acid] the “# Negative Tubes/# Tubes Tested” value ([1]; 400 ppm) was 60/60 and the “# Negative Tubes/# Tubes Tested” value ([2]; 400 ppm) was 10/10.

In the case of `[Na+].[OH-]` [caustic, NaOH], the “survivors on enrichment of treated coupons” value ([3]; caustic (3% of 50% NaOH) for 3 min at 160° F.) is reported as “survivors on one of two coupons” and the “biofilm cleaning performance, ranking” value ([3]; total 6 min at 160° F., synthetic hard water 500 ppm, acridine orange fluorescence imaging) is reported as “lastly”.
